In patent publication US9062061B2, “Compound having PARP inhibitory activity” (SANTEN PHARMACEUTICAL CO., LTD., priority 2011, dated 2015):
Where a name gives a salt, the structure may show the parent alone.

System: rat N-methyl-N-nitrosourea (MNU)-induced retinal degeneration model
Test: Retinal degeneration inhibitory activity in rat MNU-induced model (retinal volume by OCT)
Format: in vivo
Details: po, 168 h, MNU 50 mg/kg i.p., test compound 10 mg/kg orally once 30 minutes before MNU, seventh day, Brown Norway male rats, read-out: Retinal volume reduction inhibition rate (%)
Method: For examining influence of the present compound on the retinal degeneration, retinal degeneration inhibitory activity of test compound was evaluated, using a rat N-methyl-N-nitrosourea (hereinafter, “MNU”)-induced retinal degeneration model. The rat MNU-induced retinal degeneration model is a model animal in which cell death of retinal photoreceptor cell is induced by administration of MNU which is a DNA alkylation agent, and is generally used as a model animal for chorioretinal degenerative diseases such as retinitis pigmentosa (Exp. Eye. Res., 84(2), 285-292 (2007)).
By the previous day of MNU administration, retinal volumes of 8-week-old Brown Norway male rats were measured by using optical coherence tomography (OCT) (product of Carl Zeiss, model number: STRATUS OCT Model 3000). An MNU administration liquid was intraperitoneally administered to the rats at a dose of 50 to 60 mg/kg, and on the seventh day after administration, retinal volumes were measured by using OCT. The normal control group underwent no treatment, and retinal volumes were measured on the same day as the MNU administration group. The number of examples in each group was 4 rats (8 eyes).
(Administration Method) • Test compound-administered group: A solution of each test compound suspended in 1% (w/v) methylcellulose aqueous solution was orally administered once 30 minutes before MNU administration at a dose of 1 to 30 mg/kg. • Normal control group and vehicle-administered group: 1% (w/v) methylcellulose aqueous solution was orally administered once 30 minutes before MNU administration.
According to the following Formula 2, retinal volume reduction inhibition rate (%) was calculated. Retinal volume reduction inhibition rate(%)=(RVX-pre/RVX-post−RVB-pre/RVB-post)/(RVA-pre/RVA-post−RVB-pre/RVB-post)×100 [Formula 2]
RVA-pre: retinal volume before MNU administration of normal control group (mm^3)
RVA-post: retinal volume on the seventh day after MNU administration of normal control group (mm^3)
RVB-pre: retinal volume before MNU administration of vehicle-administered group (mm^3)
RVB-post: retinal volume on the seventh day after MNU administration of vehicle-administered group (mm^3)
RVX-pre: retinal volume before MNU administration of test compound-administered group (mm^3)
RVX-post: retinal volume on the seventh day after MNU administration of test compound-administered group (mm^3)

| SMILES | inhibition in vivo at 10 mg/kg [%] |
| --- | --- |
| O=c1[nH]c2cc(CN3CCC(c4ccccc4)CC3)cn2c2ccccc12 [Compound 2-5, 2-(4-Phenylpiperidin-1-ylmethyl)pyrrolo[1,2-a]quinazolin-5(4H)-one] | 16 |
| O=c1[nH]c2cc(CN3CC=C(c4ccc(Cl)cc4)CC3)cn2c2ccccc12 [Compound 2-7, 2-[4-(4-Chlorophenyl)-1,2,3,6-tetrahydropyridine-1-ylmethyl]pyrrolo[1,2-a]quinazolin-5(4H)-one] | 69 |
| O=c1[nH]c2cc(CN3CC=C(c4ccc(F)cc4)CC3)cn2c2ccccc12 [Compound 2-8, 2-[4-(4-Fluorophenyl)-1,2,3,6-tetrahydropyridin-1-ylmethyl]pyrrolo[1,2-a]quinazolin-5(4H)-one] | 39 |
| O=c1[nH]c2cc(CN3CCN(c4ccccc4F)CC3)cn2c2ccccc12 [Compound 2-9, 2-[4-(2-Fluorophenyl)piperazin-1-ylmethyl]pyrrolo[1,2-a]quinazolin-5(4H)-one] | 25 |

Target: T1, human recombinant PARP1 (Homo sapiens, UniProt P09874)
T1 construct: purchased Trevigen 4677-096-K
Test: PARP inhibitory activity measurement test (Universal Colorimetric PARP Assay kit, Trevigen)
Format: biochemical
Details: compound concentration: 10 μM, read-out: PARP1 inhibition rate (%)
Method: For evaluating PARP inhibitory activity of the present compound, inhibitory activity of each test compound against human recombinant PARP 1 was measured using Universal Colorimetric PARP Assay kit with Histone-Coated Strip Wells (Cat No.: 4677-096-K) available from Trevigen. The test was conducted according to the procedure in the instruction attached to this kit. The concrete operation will be described below.
After dissolving the test compound in dimethyl sulfoxide, the solution was diluted with a PARP buffer attached to the kit to prepare a 50 μM test compound solution.
In each well of a histone-coated 96-well plate, 10 μL of the test compound solution (50 μM), 15 μL of human recombinant PARP1 (33.3 Unit/mL) and 25 μL of PARP cocktail (containing activated DNA and biotinated NAD) were added, and incubated at room temperature for 1 hour (final reaction amount: 50 μL). Each well was washed twice with 200 μL of 0.1% Triton-X-containing Dulbecco's phosphate buffer, and further washed twice with 200 μL of Dulbecco's phosphate buffer, and then 50 μL of Strep-HRP was added, followed by incubation at room temperature for 1 hour. Each well was washed twice with 200 μL of 0.1% Triton-X-containing Dulbecco's phosphate buffer, and further washed twice with 200 μL of Dulbecco's phosphate buffer, and then 50 μL of TACS-Sapphire coloriometric substrate was added, followed by incubation at room temperature for 15 minutes. After stopping the reaction by adding 50 μL of 0.2 M HCl, absorbance at 450 nm (Abs 450) was measured by a microplate reader. The number of examples in each group was 1 to 2.
Using a well into which dimethyl sulfoxide and a PARP buffer were added in place of the test compound solution and human recombinant PARP1, the above operation was conducted as a negative control.
Using a well into which a PARP buffer containing dimethyl sulfoxide was added in place of the test compound solution, the above operation was conducted as a positive control.
PARP1 inhibition rate (%) was calculated according to the following Formula 1. PARP1 inhibition rate(%)=(AbsB−AbsX)/(AbsB−AbsA)×100 [Formula 1]
AbsA: absorbance of negative control (Abs 450)
AbsB: absorbance of positive control (Abs 450)
AbsX: absorbance of test compound-treated group (Abs 450)

T1 sequence (P09874 whole entry): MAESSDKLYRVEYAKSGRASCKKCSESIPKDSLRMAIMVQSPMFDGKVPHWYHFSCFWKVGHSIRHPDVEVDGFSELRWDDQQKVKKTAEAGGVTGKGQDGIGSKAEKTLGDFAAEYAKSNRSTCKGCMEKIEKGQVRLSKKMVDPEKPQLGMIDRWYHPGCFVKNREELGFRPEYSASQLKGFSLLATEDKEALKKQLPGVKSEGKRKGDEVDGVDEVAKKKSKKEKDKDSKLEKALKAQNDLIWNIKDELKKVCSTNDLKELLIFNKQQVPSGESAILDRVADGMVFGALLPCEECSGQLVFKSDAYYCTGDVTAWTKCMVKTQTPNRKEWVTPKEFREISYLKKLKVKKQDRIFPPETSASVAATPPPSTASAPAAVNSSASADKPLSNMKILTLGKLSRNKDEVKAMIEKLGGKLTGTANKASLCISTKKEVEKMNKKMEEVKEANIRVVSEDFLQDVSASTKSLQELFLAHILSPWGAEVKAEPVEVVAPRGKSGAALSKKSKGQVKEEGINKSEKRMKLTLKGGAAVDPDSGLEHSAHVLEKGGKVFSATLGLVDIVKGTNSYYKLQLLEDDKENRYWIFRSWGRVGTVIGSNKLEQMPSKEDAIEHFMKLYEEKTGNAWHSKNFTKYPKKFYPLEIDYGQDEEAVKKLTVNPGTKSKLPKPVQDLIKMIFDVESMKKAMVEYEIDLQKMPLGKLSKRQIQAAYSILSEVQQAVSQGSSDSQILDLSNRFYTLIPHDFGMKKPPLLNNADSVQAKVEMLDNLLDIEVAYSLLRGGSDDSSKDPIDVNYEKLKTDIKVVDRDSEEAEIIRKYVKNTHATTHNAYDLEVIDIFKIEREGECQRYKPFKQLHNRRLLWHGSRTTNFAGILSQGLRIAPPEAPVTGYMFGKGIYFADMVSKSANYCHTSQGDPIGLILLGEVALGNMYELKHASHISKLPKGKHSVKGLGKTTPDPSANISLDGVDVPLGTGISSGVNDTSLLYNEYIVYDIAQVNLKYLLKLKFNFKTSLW

| SMILES | inhibition at 10 µM [%] |
| --- | --- |
| O=c1[nH]c2cc(CN3CCC(c4ccccc4)CC3)cn2c2ccccc12 [Compound 2-5, 2-(4-Phenylpiperidin-1-ylmethyl)pyrrolo[1,2-a]quinazolin-5(4H)-one] | 96 |
| O=c1[nH]c2cc(CN3CC=C(c4ccc(Cl)cc4)CC3)cn2c2ccccc12 [Compound 2-7, 2-[4-(4-Chlorophenyl)-1,2,3,6-tetrahydropyridine-1-ylmethyl]pyrrolo[1,2-a]quinazolin-5(4H)-one] | 99 |
| O=c1[nH]c2cc(CN3CC=C(c4ccc(F)cc4)CC3)cn2c2ccccc12 [Compound 2-8, 2-[4-(4-Fluorophenyl)-1,2,3,6-tetrahydropyridin-1-ylmethyl]pyrrolo[1,2-a]quinazolin-5(4H)-one] | 100 |
| O=c1[nH]c2cc(CN3CCN(c4ccccc4F)CC3)cn2c2ccccc12 [Compound 2-9, 2-[4-(2-Fluorophenyl)piperazin-1-ylmethyl]pyrrolo[1,2-a]quinazolin-5(4H)-one] | 99 |
| CN(C)C1CCN(Cc2cc3[nH]c(=O)c4ccccc4n3c2)CC1 [Compound 2-22, 2-(4-Dimethylaminopiperidin-1-ylmethyl)pyrrolo[1,2-a]quinazolin-5(4H)-one] | 97 |
| O=c1[nH]c2cc(CN3CCN(c4ccncc4)CC3)cn2c2ccccc12 [Compound 2-23, 2-[4-(Pyridin-4-yl)piperazin-1-ylmethyl]pyrrolo[1,2-a]quinazolin-5(4H)-one] | 100 |
| CC1CN(c2ccc(F)cc2)CCN1Cc1cc2[nH]c(=O)c3ccccc3n2c1 (stereo not shown) [Compound 2-24, 2-[4-(4-Fluorophenyl)-2-methylpiperazin-1-ylmethyl]pyrrolo[1,2-a]quinazolin-5(4H)-one] | 99 |
| COc1ccccc1N1CCN(Cc2cc3[nH]c(=O)c4ccccc4n3c2)CC1 [Compound 2-25, 2-[4-(2-Methoxyphenyl)piperazin-1-ylmethyl]pyrrolo[1,2-a]quinazolin-5(4H)-one] | 100 |
| COc1cccc(N2CCN(Cc3cc4[nH]c(=O)c5ccccc5n4c3)CC2)c1 [Compound 2-26, 2-[4-(3-Methoxyphenyl)piperazin-1-ylmethyl]pyrrolo[1,2-a]quinazolin-5(4H)-one] | 78 |
| O=c1[nH]c2cc(CN3CCN(C4CCCCC4)CC3)cn2c2ccccc12 [Compound 2-27, 2-(4-Cyclohexylpiperazin-1-ylmethyl)pyrrolo[1,2-a]quinazolin-5(4H)-one] | 99 |
| O=c1[nH]c2cc(CN3CCN(CC4CC4)CC3)cn2c2ccccc12 [Compound 2-28, 2-(4-Cyclopropylmethylpiperazin-1-ylmethyl)pyrrolo[1,2-a]quinazolin-5(4H)-one] | 99 |
| O=c1[nH]c2cc(CN3CCN(c4ccc(C(F)(F)F)cc4)CC3)cn2c2ccccc12 [Compound 2-29, 2-[4-(4-Trifluoromethylphenyl)piperazin-1-ylmethyl]pyrrolo[1,2-a]quinazolin-5(4H)-one] | 40 |
| O=c1[nH]c2cc(CN3CCCC(c4ccccc4)C3)cn2c2ccccc12 (stereo not shown) [Compound 2-31, 2-(3-Phenylpiperidin-1-ylmethyl)pyrrolo[1,2-a]quinazolin-5(4H)-one] | 66 |
| Cc1cccc(N2CCN(Cc3cc4[nH]c(=O)c5ccccc5n4c3)CC2)c1 [Compound 2-32, 2-[4-(3-Methylphenyl)piperazin-1-ylmethyl]pyrrolo[1,2-a]quinazolin-5(4H)-one] | 97 |
| O=c1[nH]c2cc(CN3CCC(N4CCCCC4)CC3)cn2c2ccccc12 [Compound 2-33, 2-[4-(Piperidin-1-yl)piperidin-1-ylmethyl]pyrrolo[1,2-a]quinazolin-5(4H)-one] | 96 |
| O=c1[nH]c2cc(CN3CCCC3)cn2c2ccccc12 [Compound 2-34, 2-(Pyrrolidin-1-ylmethyl)pyrrolo[1,2-a]quinazolin-5(4H)-one] | 96 |
| O=c1[nH]c2cc(CN3CCN(c4nccc5occc45)CC3)cn2c2ccccc12 [Compound 2-36, 2-[4-(Furo[3,2-c]pyridin-4-yl)piperazin-1-ylmethyl]pyrrolo[1,2-a]quinazolin-5(4H)-one] | 82 |
| CC(C)Oc1ccc(N2CCN(Cc3cc4[nH]c(=O)c5ccccc5n4c3)CC2)cc1 [Compound 2-38, 2-[4-(4-Isopropoxyphenyl)piperazin-1-ylmethyl]pyrrolo[1,2-a]quinazolin-5(4H)-one] | 98 |
| O=c1[nH]c2cc(CN3CCN(c4ccc(F)cc4)CC3)cn2c2ccsc12 [Compound 2-41, 7-[4-(4-Fluorophenyl)piperazin-1-ylmethyl]pyrrolo[1,2-a]thieno[2,3-e]pyrimidin-4(5H)-one] | 100 |
| O=c1[nH]c2cc(CN3CCN(c4ccc(Cl)cc4)CC3)cn2c2ccsc12 [Compound 2-42, 7-[4-(4-Chlorophenyl)piperazin-1-ylmethyl]pyrrolo[1,2-a]thieno[2,3-e]pyrimidin-4(5H)-one] | 100 |
| O=c1[nH]c2cc(CN3CCCC3)cn2c2ccsc12 [Compound 2-43, 7-(Pyrrolidin-1-ylmethyl)pyrrolo[1,2-a]thieno[2,3-e]pyrimidin-4(5H)-one] | 91 |
| CN(C)CCOc1cc(F)ccc1N1CCN(Cc2cc3[nH]c(=O)c4ccccc4n3c2)CC1 [Compound 2-46, 2-[4-[2-(2-Dimethylaminoethoxy)-4-fluorophenyl]piperazin-1-ylmethyl]pyrrolo[1,2-a]quinazolin-5(4H)-one] | 85 |
| O=c1[nH]c2cc(CN3CCC(N4CCOCC4)CC3)cn2c2ccccc12 [Compound 2-47, 2-[4-(Morpholin-4-yl)piperidin-1-ylmethyl]pyrrolo[1,2-a]quinazolin-5(4H)-one] | 99 |
| O=c1[nH]c2cc(CN3CCN(c4ccc(O)cc4)CC3)cn2c2ccccc12 [Compound 3-1, 2-[4-(4-Hydroxyphenyl)piperazin-1-ylmethyl]pyrrolo[1,2-a]quinazolin-5(4H)-one] | 100 |
| O=C(c1cc2[nH]c(=O)c3ccccc3n2c1)N1CCCNCC1 [Compound 5-1, 2-(Homopiperazine-1-carbonyl)pyrrolo[1,2-a]quinazolin-5(4H)-one hydrochloride] | 99 |
| O=C(c1cc2[nH]c(=O)c3ccccc3n2c1)N1CCNCC1 [Compound 5-2, 2-(piperazine-1-carbonyl)pyrrolo[1,2-a]quinazolin-5(4H)-one] | 85 |
| O=C(c1cc2[nH]c(=O)c3ccccc3n2c1)N1CCCN(C(=O)C2CC2)CC1 [Compound 6-1, 2-[4-Cyclopropylcarbonylhomopiperazine-1-carbonyl]pyrrolo[1,2-a]quinazolin-5(4H)-one] | 90 |
